Several values for one entry are separate records, joined by “and”; a condition that tells them apart may be missing. Equal values may be shown once.
Experiments:
[1] = biological target: Sodium-dependent serotonin transporter (Homo sapiens) (UniProt P31645); assay: Displacement of [3H]5-HT from SERT at 100 nM
[2] = biological target: Sodium-dependent dopamine transporter (Homo sapiens) (UniProt Q01959); assay: Displacement of […] from DAT at 1000 nM
[3] = biological target: T1, Sodium-dependent noradrenaline transporter (Homo sapiens, UniProt P23975); assay: Binding affinity to NET
[4] = biological target: T1, Sodium-dependent noradrenaline transporter; assay: Binding affinity to NET at 100 nM
Rattus norvegicus [5] = assay: Ability to block alpha-MMT-induced depletion of cortical norepinephrine concentration in orally dosed Sprague-Dawley rat; assay type: functional; details: po
Liver microsomes [6] = assay: Stability in rat liver microsome; assay type: ADME
Rattus norvegicus [7] = assay: Ability to block alpha-MMT-induced depletion of cortical norepinephrine concentration in Sprague-Dawley rat at 3 mg/kg, sc; assay type: functional; details: route subcutaneous
Liver microsomes [8] = assay: Stability in human liver microsome; assay type: ADME
Canis familiaris = organism: Canis familiaris; assay: Stability in dog liver microsome; assay type: ADME, Canis lupus familiaris

Sequence of Sodium-dependent dopamine transporter (Homo sapiens) (Q01959 whole entry): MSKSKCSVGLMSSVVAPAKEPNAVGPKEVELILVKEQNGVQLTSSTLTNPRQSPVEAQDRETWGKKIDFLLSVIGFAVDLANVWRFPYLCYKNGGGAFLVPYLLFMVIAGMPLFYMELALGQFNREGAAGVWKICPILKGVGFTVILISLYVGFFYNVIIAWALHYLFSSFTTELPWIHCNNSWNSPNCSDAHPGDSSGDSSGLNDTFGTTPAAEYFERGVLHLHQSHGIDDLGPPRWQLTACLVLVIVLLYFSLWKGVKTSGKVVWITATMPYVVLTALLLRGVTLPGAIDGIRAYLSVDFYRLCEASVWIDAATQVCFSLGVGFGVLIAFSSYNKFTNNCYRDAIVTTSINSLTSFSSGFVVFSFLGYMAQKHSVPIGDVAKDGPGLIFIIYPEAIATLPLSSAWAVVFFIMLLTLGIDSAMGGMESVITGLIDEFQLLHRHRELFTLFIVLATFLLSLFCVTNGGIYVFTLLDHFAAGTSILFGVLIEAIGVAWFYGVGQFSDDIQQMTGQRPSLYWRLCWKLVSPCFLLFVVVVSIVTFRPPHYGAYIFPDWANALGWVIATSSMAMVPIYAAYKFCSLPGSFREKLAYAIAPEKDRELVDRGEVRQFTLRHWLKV
T1 sequence (P23975 whole entry): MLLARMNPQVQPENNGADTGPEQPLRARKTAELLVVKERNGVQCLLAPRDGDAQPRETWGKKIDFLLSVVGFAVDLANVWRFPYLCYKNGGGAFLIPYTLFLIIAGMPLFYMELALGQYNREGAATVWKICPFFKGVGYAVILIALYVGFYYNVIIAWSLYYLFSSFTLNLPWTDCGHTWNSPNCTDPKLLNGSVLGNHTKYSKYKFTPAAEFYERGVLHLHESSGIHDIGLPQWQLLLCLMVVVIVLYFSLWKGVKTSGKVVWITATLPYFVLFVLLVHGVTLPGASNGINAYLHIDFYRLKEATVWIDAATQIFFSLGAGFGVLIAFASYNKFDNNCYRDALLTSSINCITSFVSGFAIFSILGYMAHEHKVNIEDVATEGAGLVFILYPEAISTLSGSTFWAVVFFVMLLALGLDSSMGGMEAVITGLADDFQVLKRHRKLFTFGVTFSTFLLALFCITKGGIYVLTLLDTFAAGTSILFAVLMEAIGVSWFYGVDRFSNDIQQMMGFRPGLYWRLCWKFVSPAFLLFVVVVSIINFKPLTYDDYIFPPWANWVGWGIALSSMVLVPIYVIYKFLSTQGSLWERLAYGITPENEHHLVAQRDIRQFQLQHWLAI
Sequence of Sodium-dependent serotonin transporter (Homo sapiens) (P31645 whole entry, looked up): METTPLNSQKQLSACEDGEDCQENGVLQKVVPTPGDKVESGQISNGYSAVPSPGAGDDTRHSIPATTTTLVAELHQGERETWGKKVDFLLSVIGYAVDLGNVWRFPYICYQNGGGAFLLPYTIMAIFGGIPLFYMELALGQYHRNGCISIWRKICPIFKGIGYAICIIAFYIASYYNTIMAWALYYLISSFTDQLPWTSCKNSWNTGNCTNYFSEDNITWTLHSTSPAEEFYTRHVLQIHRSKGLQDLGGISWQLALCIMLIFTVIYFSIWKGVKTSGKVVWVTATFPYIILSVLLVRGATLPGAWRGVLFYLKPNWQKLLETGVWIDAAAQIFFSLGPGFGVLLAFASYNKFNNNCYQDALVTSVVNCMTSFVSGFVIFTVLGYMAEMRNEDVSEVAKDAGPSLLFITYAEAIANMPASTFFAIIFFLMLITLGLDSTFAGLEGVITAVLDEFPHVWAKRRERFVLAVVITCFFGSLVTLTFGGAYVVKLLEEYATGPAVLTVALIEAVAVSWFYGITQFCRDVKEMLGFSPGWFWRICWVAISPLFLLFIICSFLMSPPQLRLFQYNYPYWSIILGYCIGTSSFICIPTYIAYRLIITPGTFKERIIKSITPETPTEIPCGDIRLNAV

SMILES	inhibition [1]	inhibition [2]	Ki [3]	further results
O[C@](Cc1ccccc1-c1ccccc1)(c1ccccc1)[C@@H]1CNCCO1 (single isomer, unassigned)	3%	2.9%	3.7 nM	
O[C@](Cc1ccccc1Br)(c1ccccc1)[C@@H]1CNCCO1	13%	24.1%	11.9 nM	
CC(C)Oc1ccccc1C[C@@](O)(c1ccccc1)[C@@H]1CNCCO1	2.7%	5.1%	7.7 nM	
CCOc1ccccc1C[C@@](O)(c1ccccc1)[C@@H]1CNCCO1	2.4%	3.8%	5.2 nM	
O[C@](Cc1ccccc1SC(F)(F)F)(c1ccccc1)[C@@H]1CNCCO1	14.8%	6.2%	54.4 nM	
O[C@](Cc1ccccc1Cl)(c1ccccc1)[C@@H]1CNCCO1	4.6%	20.8%	30 nM	
O[C@](Cc1ccccc1)(c1ccccc1)[C@@H]1CNCCO1	4.2%	5.5%	148 nM	

Second part, led by results:

inhibition [1]	inhibition [2]	Ki [3]	SMILES	further results
0.3%	4.6%		COc1ccccc1C[C@@](O)(c1ccccc1)[C@@H]1CNCCO1 (single isomer, unassigned; isomer 2) [listing 1 of 2 here]	
2.8%	4.3%		COc1cccc(C[C@@](O)(c2ccccc2)[C@@H]2CNCCO2)c1	inhibition [4]: 19.8%
		3.2 nM	COc1ccccc1C[C@@](O)(c1ccccc1)[C@@H]1CNCCO1.Cl.Cl.Cl	ED50 (Rattus norvegicus [5]): 18 mg/kg; Stability (Liver microsomes [6]): 0%; Activity (Rattus norvegicus [7]): 70%; Stability (Liver microsomes [8]): 98%; Stability (Canis familiaris): 60%
		56 nM	COc1ccccc1C[C@@](O)(c1ccccc1)[C@@H]1CNCCO1 [listing 1 of 3 here]	
5% and 5.5% and 1.4%	4.7% and 3.8% and 3.7%		COc1ccccc1C[C@@](O)(c1ccccc1)[C@@H]1CNCCO1 [listing 2 of 3 here]	
		156 nM	COc1ccccc1C[C@@](O)(c1ccccc1)[C@@H]1CNCCO1 (single isomer, unassigned; isomer 2) [listing 2 of 2 here]	
4.3%	6.2%		COc1ccc(C[C@@](O)(c2ccccc2)[C@@H]2CNCCO2)cc1	inhibition [4]: 25.2%
		161 nM	COc1ccccc1C[C@@](O)(c1ccccc1)[C@@H]1CNCCO1 [listing 3 of 3 here]	

From ChEMBL document CHEMBL1146108, “Discovery of novel and selective tertiary alcohol containing inhibitors of the norepinephrine transporter” (Bioorg Med Chem Lett, 2006)
